Activity calls are given as the source filed them. The rule behind the calls is not given here.
What was measured:
Influenza A virus [1] = experiment: Antiviral activity against Influenza A virus (A/PR 8/34 (H1N1)) infected in MDCK cells assessed as reduction in viral RNA synthesis at 50 uM treated at 1 hr post-infection by RT-qPCR analysis; type: functional, organism-based; details: A/Puerto Rico/8/1934(H1N1)
[2] = biological target: Hemagglutinin (Influenza A virus (A/Puerto Rico/8/1934(H1N1))) (UniProt P03452); experiment: Inhibition of Influenza A virus (A/PR 8/34 (H1N1)) hemagglutinin infected in MDCK cells assessed as reduction in virus binding to cell surface; type: cell-based
Trypsin (Homo sapiens) = Trypsin (Homo sapiens) (UniProt P07477+P07478+P35030); experiment: Inhibition of human trypsin using Boc-Gln-Ala-Arg-AMC as substrate preincubated for 15 mins followed by substrate addition and measured for 60 mins by fluorescence assay; type: protein assay; details: time 75.0 min
Influenza A virus [3] = experiment: Antiviral activity against Influenza A virus (A/PR 8/34 (H1N1)) infected in MDCK cells assessed as reduction in virus-induced cytopathic effect measured after 72 hrs by MTS assay; type: functional, organism-based; details: A/Puerto Rico/8/1934(H1N1)
[4] = biological target: Hemagglutinin (Influenza A virus (A/Puerto Rico/8/1934(H1N1))) (UniProt P03452); experiment: Inhibition of Influenza A virus (A/PR 8/34 (H1N1)) hemagglutinin transfected in human HeLa cells assessed as reduction in low pH-indued polykaryon formation at 100 uM preincubated for 15 mins followed by pH 5.2 buffer addition and measured after 5 mins by giemsa staining based microscopic analysis; type: cell-based; details: time 20.0 min
Influenza B virus [5] = experiment: Antiviral activity against Influenza B virus B/HK/5/72 infected in MDCK cells assessed as reduction in virus induced cytopathic effect after 72 hrs by microscopy based method; type: functional, organism-based
Influenza A virus (H1N1) [6] = experiment: Antiviral activity against Influenza A virus (H1N1) A/Virginia/ATCC3/2009 infected in MDCK cells assessed as reduction in virus-induced cytopathic effect measured after 72 hrs by MTS assay; type: functional, organism-based
[7] = Selectivity index, ratio of CC50 for MDCK cells to EC50 for antiviral activity against Influenza A virus (A/Puerto Rico/8/1934(H1N1)) infected in MDCK cells; type: toxicity, cell-based; details: dog, read-out: Ratio CC50/EC50
Influenza A virus [8] = experiment: Antiviral activity against Influenza A virus (A/PR 8/34 (H1N1)) infected in MDCK cells assessed as reduction in virus-induced cytopathic effect measured after 72 hrs by microscopic analysis; type: functional, organism-based; details: A/Puerto Rico/8/1934(H1N1)
[9] = biological target: Procathepsin L (Homo sapiens) (UniProt P07711); experiment: Inhibition of human liver cathepsin L using Z-Phe-Arg-AMC as substrate preincubated for 15 mins followed by substrate addition and measured for 60 mins by fluorescence assay; details: time 75.0 min
Influenza A virus [10] = experiment: Antiviral activity against Influenza A virus (A/PR 8/34 (H1N1)) clone 2 infected in MDCK cells assessed as reduction in virus-induced cytopathic effect measured after 72 hrs by microscopic analysis; type: functional, organism-based; details: A/Puerto Rico/8/1934(H1N1)
[11] = Selectivity index, ratio of MCC for HELF cells to EC50 for antiviral activity against Influenza A virus (A/PR 8/34 (H1N1)) infected in human Calu-3 cells; type: toxicity, cell-based; details: HELF cells (MCC) and Calu-3 cells (EC50), read-out: Selectivity Index
[12] = Cytotoxicity against human HeLa cells; type: cell-based
Influenza A virus [13] = experiment: Antiviral activity against Influenza A virus (A/PR 8/34 (H1N1)) clone 2 infected in MDCK cells assessed as reduction in virus-induced cytopathic effect measured after 72 hrs by MTS assay; type: functional, organism-based; details: A/Puerto Rico/8/1934(H1N1)
[14] = biological target: T1, Transmembrane protease serine 11D (Homo sapiens) (UniProt O60235); experiment: Inhibition of recombinant human N-terminal His-tagged HAT (Ala42 to Ile418 residues) expressed in mouse NSO cells using Boc-Gln-Ala-Arg-AMC as substrate preincubated for 15 mins followed by substrate addition and measured for 60 mins by fluorescence assay; details: time 75.0 min
T1 sequence (whole entry): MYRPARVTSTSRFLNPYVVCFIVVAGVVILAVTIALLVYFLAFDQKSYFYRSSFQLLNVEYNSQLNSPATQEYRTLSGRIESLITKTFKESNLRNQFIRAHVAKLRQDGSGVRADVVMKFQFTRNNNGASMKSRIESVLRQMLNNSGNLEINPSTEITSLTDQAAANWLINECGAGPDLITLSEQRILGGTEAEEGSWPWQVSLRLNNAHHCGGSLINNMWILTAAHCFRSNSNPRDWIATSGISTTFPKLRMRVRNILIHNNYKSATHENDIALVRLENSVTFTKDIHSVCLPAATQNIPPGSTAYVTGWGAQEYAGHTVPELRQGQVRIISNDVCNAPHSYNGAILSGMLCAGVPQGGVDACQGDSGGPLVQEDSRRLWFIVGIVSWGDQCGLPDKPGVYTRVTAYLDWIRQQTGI

Influenza A virus [15] = experiment: Antiviral activity against Influenza A virus (A/PR 8/34 (H1N1)) infected in human Calu-3 cells assessed as reduction in virus-induced cytopathic effect measured after 72 hrs by MTS assay; type: functional, organism-based; details: A/Puerto Rico/8/1934(H1N1), Calu-3, 72 h
Influenza A virus [16] = experiment: Antiviral activity against Influenza A virus (A/PR 8/34 (H1N1)) clone 1 infected in MDCK cells assessed as reduction in virus-induced cytopathic effect measured after 72 hrs by microscopic analysis; type: functional, organism-based; details: A/Puerto Rico/8/1934(H1N1)
Influenza A virus H3N2 [17] = experiment: Antiviral activity against Influenza A virus H3N2 A/HK/7/87 infected in MDCK cells assessed as reduction in virus induced cytopathic effect after 72 hrs by MTS assay; type: functional, organism-based
Influenza B virus [18] = experiment: Antiviral activity against Influenza B virus B/HK/5/72 infected in MDCK cells assessed as reduction in virus induced cytopathic effect after 72 hrs by MTS assay; type: functional, organism-based
[19] = Cytotoxicity against MDCK cells assessed as reduction in cell viability measured after 72 hrs by MTS assay; type: cell-based, Canis lupus familiaris; details: dog
Influenza A virus (H1N1) [20] = experiment: Antiviral activity against Influenza A virus (H1N1) A/Virginia/ATCC3/2009 infected in MDCK cells assessed as reduction in virus-induced cytopathic effect measured after 72 hrs by microscopic analysis; type: functional, organism-based
Influenza A virus H3N2 [21] = experiment: Antiviral activity against Influenza A virus H3N2 A/HK/7/87 infected in MDCK cells assessed as reduction in virus induced cytopathic effect after 72 hrs by microscopy based method; type: functional, organism-based
[22] = biological target: T2, Cathepsin F (Homo sapiens) (UniProt Q9UBX1); experiment: Inhibition of recombinant human cathepsin F expressed in baculovirus infected insect cells using Z-Phe-Arg-AMC as substrate preincubated for 15 mins followed by substrate addition and measured for 60 mins by fluorescence assay; details: time 75.0 min
T2 sequence (whole entry): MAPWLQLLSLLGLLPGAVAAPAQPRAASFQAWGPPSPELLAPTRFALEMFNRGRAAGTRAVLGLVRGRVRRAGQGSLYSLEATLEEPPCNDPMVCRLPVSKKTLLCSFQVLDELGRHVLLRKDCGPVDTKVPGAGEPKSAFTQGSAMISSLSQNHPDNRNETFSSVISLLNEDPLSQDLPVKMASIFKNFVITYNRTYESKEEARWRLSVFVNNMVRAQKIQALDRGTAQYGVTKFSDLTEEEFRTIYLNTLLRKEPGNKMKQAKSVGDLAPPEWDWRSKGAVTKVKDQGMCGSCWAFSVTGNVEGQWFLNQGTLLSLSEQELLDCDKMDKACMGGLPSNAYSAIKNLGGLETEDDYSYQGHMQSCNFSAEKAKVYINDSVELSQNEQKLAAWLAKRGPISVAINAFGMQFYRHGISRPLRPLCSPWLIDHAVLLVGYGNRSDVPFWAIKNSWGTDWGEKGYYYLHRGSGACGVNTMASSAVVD

Influenza A virus [23] = experiment: Antiviral activity against Influenza A virus (A/PR 8/34 (H1N1)) clone 1 infected in MDCK cells assessed as reduction in virus-induced cytopathic effect measured after 72 hrs by MTS assay; type: functional, organism-based; details: A/Puerto Rico/8/1934(H1N1)
[24] = biological target: Cathepsin B (Homo sapiens) (UniProt P07858); experiment: Inhibition of human liver cathepsin B using Z-Phe-Arg-AMC as substrate preincubated for 15 mins followed by substrate addition and measured for 60 mins by fluorescence assay; details: time 75.0 min
[25] = Selectivity index, ratio of MCC for human HeLa cells to EC50 for antiviral activity against Influenza A virus (A/PR 8/34 (H1N1)) infected in human Calu-3 cells; type: toxicity, cell-based; details: HeLa cells (MCC) and Calu-3 cells (EC50), read-out: Selectivity Index
[26] = biological target: Hemagglutinin (Influenza A virus (A/Puerto Rico/8/1934(H1N1))) (UniProt P03452); experiment: Inhibition of Influenza A virus (A/PR 8/34 (H1N1)) hemagglutinin transfected in human HeLa cells assessed as reduction in low pH-indued polykaryon formation preincubated for 15 mins followed by pH 5.2 buffer addition and measured after 5 mins by giemsa staining based microscopic analysis; type: cell-based; details: time 20.0 min
[27] = Cytotoxicity against HELF cells; type: cell-based; details: human
[28] = Cytotoxicity against MDCK cells assessed as change in cell morphology measured after 72 hrs by microscopic analysis; type: cell-based, Canis lupus familiaris; details: dog
Influenza A virus [29] = experiment: Antiviral activity against Influenza A virus (A/PR 8/34 (H1N1)) infected in human Calu-3 cells assessed as reduction in virus-induced cytopathic effect measured after 72 hrs by microscopic analysis; type: functional, organism-based; details: A/Puerto Rico/8/1934(H1N1), Calu-3, 72 h

Sequence of Hemagglutinin (Influenza A virus (A/Puerto Rico/8/1934(H1N1))) (P03452 whole entry): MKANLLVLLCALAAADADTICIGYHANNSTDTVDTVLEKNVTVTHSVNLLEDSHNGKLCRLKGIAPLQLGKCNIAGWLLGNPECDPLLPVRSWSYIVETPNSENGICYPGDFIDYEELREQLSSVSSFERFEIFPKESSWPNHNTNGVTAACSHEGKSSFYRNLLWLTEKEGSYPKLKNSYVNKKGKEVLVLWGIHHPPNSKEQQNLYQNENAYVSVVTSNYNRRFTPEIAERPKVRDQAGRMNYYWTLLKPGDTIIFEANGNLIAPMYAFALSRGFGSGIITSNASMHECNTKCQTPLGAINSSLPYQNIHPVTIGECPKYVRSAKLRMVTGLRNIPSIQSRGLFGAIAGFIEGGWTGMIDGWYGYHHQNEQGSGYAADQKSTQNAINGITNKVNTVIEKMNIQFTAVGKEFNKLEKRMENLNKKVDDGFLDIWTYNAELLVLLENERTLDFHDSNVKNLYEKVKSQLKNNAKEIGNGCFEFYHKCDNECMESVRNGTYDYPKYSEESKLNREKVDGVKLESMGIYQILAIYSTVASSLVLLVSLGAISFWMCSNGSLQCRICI
Sequence of Procathepsin L (Homo sapiens) (P07711 114-333 limits assumed): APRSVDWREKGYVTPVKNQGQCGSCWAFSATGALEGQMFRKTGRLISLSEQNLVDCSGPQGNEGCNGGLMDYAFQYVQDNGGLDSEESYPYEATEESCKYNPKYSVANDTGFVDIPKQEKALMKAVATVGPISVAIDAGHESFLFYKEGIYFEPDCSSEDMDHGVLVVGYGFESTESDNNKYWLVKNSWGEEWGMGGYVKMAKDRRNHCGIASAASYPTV

## COC(=O)C[C@H](NC(=O)OC(C)(C)C)C(=O)N(Cc1ccc(F)cc1)C1(C(=O)NCc2ccccc2)CCN(Cc2ccccc2)CC1
Influenza A virus [1]
  Activity: Active
[2]
  inhibition: inactive
Trypsin (Homo sapiens)
  inhibition: inactive
Influenza A virus [3]
  EC50: 2700 nM
[4]
  inhibition: 100%
Influenza B virus [5]
  Activity: inactive
Influenza A virus (H1N1) [6]
  Activity: inactive
[7]
  selectivity ratio: 18
Influenza A virus [8]
  EC50: 1900 nM
[9]
  inhibition: inactive
Influenza A virus [10]
  EC50: > 100000 nM
[11]
  selectivity ratio: ≥ 30
[12]
  MCC: 100 µM
Influenza A virus [13]
  EC50: > 100000 nM
[14]
  inhibition: inactive
Influenza A virus [15]
  EC50: 3000 nM
Influenza A virus [16]
  EC50: > 100000 nM
Influenza A virus H3N2 [17]
  Activity: inactive
Influenza B virus [18]
  Activity: inactive
[19]
  CC50 at 72 h: > 100000 nM
Influenza A virus (H1N1) [20]
  Activity: inactive
Influenza A virus H3N2 [21]
  Activity: inactive
[22]
  inhibition: inactive
Influenza A virus [23]
  EC50: > 100000 nM
[24]
  inhibition: inactive
[25]
  selectivity ratio: ≥ 30
[26]
  inhibition: Dose-dependent effect
[27]
  MCC: 100 µM
[28]
  MCC at 72 h: > 100 µM
Influenza A virus [29]
  EC50: 1800 nM
